In brackets after ≈: the same amount, converted by molar mass.

The first experiment relates to Streptococcus mutans. Nature of the experiment: Antibacterial activity against Streptococcus mutans MTCC 497 assessed as zone of inhibition at 100 ug/well measured after 24 hrs by agar well diffusion method. Type of experiment: functional. To be noted: MTCC 497, 24 h, read-out: DIZ.
Take `CC1(C)O[C@H]2O[C@@H]3COB(c4cccc(C=O)c4)O[C@@H]3[C@H]2O1`: the zone of inhibition at 100 µg/disc is 22 mm.
The same measure, in the same setting: the result for `CC1(C)O[C@H]2O[C@@H]3COB(c4cccc(/N=C/c5cc(Br)ccc5O)c4)O[C@@H]3[C@H]2O1` reads 21 mm.

The test system of a further experiment is Candida albicans. Nature of the experiment: Antifungal activity against Candida albicans MTCC 3017 assessed as zone of inhibition at 100 ug/well measured after 48 hrs by agar well diffusion method. The format is functional. To be noted: MTCC 3017, 48 h, read-out: DIZ. A general note: In agar diffusion tests the substance spreads into inoculated agar from a disc or well.
Regarding `CC1(C)O[C@H]2O[C@@H]3COB(c4cccc(C=O)c4)O[C@@H]3[C@H]2O1`, the zone of inhibition at 100 µg/disc amounted to 11 mm.
In the case of `CC1(C)O[C@H]2O[C@@H]3COB(c4cccc(/N=C/c5cc(Br)ccc5O)c4)O[C@@H]3[C@H]2O1`, the zone of inhibition at 100 µg/disc was determined as 18 mm.

The subject of a further experiment is Salmonella paratyphi. The experiment can be described thus: Antibacterial activity against Salmonella paratyphi measured after 24 hrs by NCCL protocol based broth dilution method. Type of experiment: functional, Salmonella enterica subsp. enterica serovar Paratyphi A. As to conditions: Salmonella enterica.
For orientation: MIC means the least concentration at which growth counts as inhibited. `CC1(C)O[C@H]2O[C@@H]3COB(c4cccc(C=O)c4)O[C@@H]3[C@H]2O1` showed a minimum inhibitory concentration (MIC) of 62.5 µg/mL (≈ 206 µM).
In the case of `CC1(C)O[C@H]2O[C@@H]3COB(c4cccc(/N=C/c5cc(Br)ccc5O)c4)O[C@@H]3[C@H]2O1`, the MIC was found to be 62.5 µg/mL (≈ 132 µM).

The subject of the next experiment is Salmonella typhi. Nature of the experiment: Antibacterial activity against Salmonella typhi measured after 24 hrs by NCCL protocol based broth dilution method. Type of experiment: functional, Salmonella enterica subsp. enterica serovar Typhi. As to conditions: Salmonella enterica.
In turn, `CC1(C)O[C@H]2O[C@@H]3COB(c4cccc(C=O)c4)O[C@@H]3[C@H]2O1` registered an MIC of 62.5 µg/mL (≈ 206 µM).
On the same count and under the same terms, the result for `CC1(C)O[C@H]2O[C@@H]3COB(c4cccc(/N=C/c5cc(Br)ccc5O)c4)O[C@@H]3[C@H]2O1` reads 31.2 µg/mL (≈ 65.9 µM).

The test system of another experiment is Salmonella typhi. Nature of the experiment: Antibacterial activity against Salmonella typhi assessed as zone of inhibition at 100 ug/well measured after 24 hrs by agar well diffusion method. As to conditions: Salmonella enterica, read-out: DIZ. Type of experiment: functional, Salmonella enterica subsp. enterica serovar Typhi.
Consider `CC1(C)O[C@H]2O[C@@H]3COB(c4cccc(C=O)c4)O[C@@H]3[C@H]2O1`, for which the zone of inhibition at 100 µg/disc was found to be 18 mm.
Same read-out and setting: for `CC1(C)O[C@H]2O[C@@H]3COB(c4cccc(/N=C/c5cc(Br)ccc5O)c4)O[C@@H]3[C@H]2O1` the value was 24 mm.

The next experiment deals with Micrococcus luteus. Nature of the experiment: Antibacterial activity against Micrococcus luteus MTCC 106 assessed as zone of inhibition at 100 ug/well measured after 24 hrs by agar well diffusion method. As to conditions: MTCC 106, 24 h, read-out: DIZ. Type of experiment: functional.
For `CC1(C)O[C@H]2O[C@@H]3COB(c4cccc(C=O)c4)O[C@@H]3[C@H]2O1`, the zone of inhibition at 100 µg/disc came to 12 mm.
For the compound `CC1(C)O[C@H]2O[C@@H]3COB(c4cccc(/N=C/c5cc(Br)ccc5O)c4)O[C@@H]3[C@H]2O1`, the zone of inhibition at 100 µg/disc came to 22 mm.

The test system of a further experiment is Salmonella paratyphi. Nature of the experiment: Antibacterial activity against Salmonella paratyphi assessed as zone of inhibition at 100 ug/well measured after 24 hrs by agar well diffusion method. The format is functional, Salmonella enterica subsp. enterica serovar Paratyphi A. To be noted: Salmonella enterica, read-out: DIZ.
`CC1(C)O[C@H]2O[C@@H]3COB(c4cccc(C=O)c4)O[C@@H]3[C@H]2O1`: the zone of inhibition at 100 µg/disc was 18 mm.
As to `CC1(C)O[C@H]2O[C@@H]3COB(c4cccc(/N=C/c5cc(Br)ccc5O)c4)O[C@@H]3[C@H]2O1`, the zone of inhibition at 100 µg/disc worked out at 14 mm.

A further experiment has as its system Streptococcus mutans. The experiment can be described thus: Antibacterial activity against Streptococcus mutans MTCC 497 measured after 24 hrs by NCCL protocol based broth dilution method. The format is functional. To be noted: MTCC 497, 24 h. (In general: Dilution methods test growth across graded concentrations, often in twofold steps.)
In turn, `CC1(C)O[C@H]2O[C@@H]3COB(c4cccc(C=O)c4)O[C@@H]3[C@H]2O1` returned a minimal inhibitory concentration (MIC) of 62.5 µg/mL (≈ 206 µM).
In the case of `CC1(C)O[C@H]2O[C@@H]3COB(c4cccc(/N=C/c5cc(Br)ccc5O)c4)O[C@@H]3[C@H]2O1`, it took 62.5 µg/mL (≈ 132 µM) to inhibit growth (MIC).

Another experiment relates to Staphylococcus aureus. The experiment can be described thus: Antibacterial activity against Staphylococcus aureus MTCC 3160 measured after 24 hrs by NCCL protocol based broth dilution method. To be noted: MTCC 3160, 24 h. The format is functional.
In the case of `CC1(C)O[C@H]2O[C@@H]3COB(c4cccc(C=O)c4)O[C@@H]3[C@H]2O1`, the lowest concentration to inhibit growth (MIC) was 250 µg/mL (≈ 822 µM).
`CC1(C)O[C@H]2O[C@@H]3COB(c4cccc(/N=C/c5cc(Br)ccc5O)c4)O[C@@H]3[C@H]2O1` had a minimum inhibitory concentration (MIC) of 125 µg/mL (≈ 264 µM).

In the next experiment the test system is Micrococcus luteus. The experiment can be described thus: Antibacterial activity against Micrococcus luteus MTCC 106 measured after 24 hrs by NCCL protocol based broth dilution method. Type of experiment: functional. To be noted: MTCC 106, 24 h.
As for `CC1(C)O[C@H]2O[C@@H]3COB(c4cccc(C=O)c4)O[C@@H]3[C@H]2O1`, inhibition of growth (MIC) required 250 µg/mL (≈ 822 µM).
Compound `CC1(C)O[C@H]2O[C@@H]3COB(c4cccc(/N=C/c5cc(Br)ccc5O)c4)O[C@@H]3[C@H]2O1` came in with an MIC of 31.2 µg/mL (≈ 65.9 µM).

The subject of another experiment is Candida albicans. Nature of the experiment: Antifungal activity against Candida albicans MTCC 3017 measured after 48 hrs by NCCL protocol based broth dilution method. To be noted: MTCC 3017, 48 h. Type of experiment: functional.
`CC1(C)O[C@H]2O[C@@H]3COB(c4cccc(C=O)c4)O[C@@H]3[C@H]2O1` returned an MIC of 250 µg/mL (≈ 822 µM).
`CC1(C)O[C@H]2O[C@@H]3COB(c4cccc(/N=C/c5cc(Br)ccc5O)c4)O[C@@H]3[C@H]2O1`: inhibition of growth (MIC) required 62.5 µg/mL (≈ 132 µM).

The subject of the next experiment is Aspergillus fumigatus. The experiment can be described thus: Antifungal activity against Aspergillus fumigatus MTCC 343 assessed as zone of inhibition at 100 ug/well measured after 48 hrs by agar well diffusion method. The format is functional. To be noted: MTCC 343, 48 h, read-out: DIZ.
As for `CC1(C)O[C@H]2O[C@@H]3COB(c4cccc(C=O)c4)O[C@@H]3[C@H]2O1`, the zone of inhibition at 100 µg/disc amounted to 0 mm.
Still for that read-out and setting: the result for `CC1(C)O[C@H]2O[C@@H]3COB(c4cccc(/N=C/c5cc(Br)ccc5O)c4)O[C@@H]3[C@H]2O1` reads 0 mm.

For the next experiment, the system named is Klebsiella pneumoniae. Nature of the experiment: Antibacterial activity against Klebsiella pneumoniae MTCC 3384 assessed as zone of inhibition at 100 ug/well measured after 24 hrs by agar well diffusion method. The format is functional. As to conditions: MTCC 3384, 24 h, read-out: DIZ.
Regarding `CC1(C)O[C@H]2O[C@@H]3COB(c4cccc(C=O)c4)O[C@@H]3[C@H]2O1`, the zone of inhibition at 100 µg/disc is 19 mm.
The same measure, in the same setting: for `CC1(C)O[C@H]2O[C@@H]3COB(c4cccc(/N=C/c5cc(Br)ccc5O)c4)O[C@@H]3[C@H]2O1` the value was 21 mm.

The test system of another experiment is Aspergillus fumigatus. The experiment can be described thus: Antifungal activity against Aspergillus fumigatus MTCC 343 measured after 48 hrs by NCCL protocol based broth dilution method. Type of experiment: functional. As to conditions: MTCC 343, 48 h.
The compound `CC1(C)O[C@H]2O[C@@H]3COB(c4cccc(C=O)c4)O[C@@H]3[C@H]2O1` displayed an MIC of 500 µg/mL (≈ 1640 µM).
Same read-out and setting: the result for `CC1(C)O[C@H]2O[C@@H]3COB(c4cccc(/N=C/c5cc(Br)ccc5O)c4)O[C@@H]3[C@H]2O1` reads 250 µg/mL (≈ 527 µM).

A further experiment has as its system Klebsiella pneumoniae. Nature of the experiment: Antibacterial activity against Klebsiella pneumoniae MTCC 3384 measured after 24 hrs by NCCL protocol based broth dilution method. The format is functional. As to conditions: MTCC 3384, 24 h.
In turn, `CC1(C)O[C@H]2O[C@@H]3COB(c4cccc(C=O)c4)O[C@@H]3[C@H]2O1` yielded an MIC of 62.5 µg/mL (≈ 206 µM).
Same read-out and setting: for `CC1(C)O[C@H]2O[C@@H]3COB(c4cccc(/N=C/c5cc(Br)ccc5O)c4)O[C@@H]3[C@H]2O1` the value was 62.5 µg/mL (≈ 132 µM).

Another experiment relates to Staphylococcus aureus. The experiment can be described thus: Antibacterial activity against Staphylococcus aureus MTCC 3160 assessed as zone of inhibition at 100 ug/well measured after 24 hrs by agar well diffusion method. Type of experiment: functional. As to conditions: MTCC 3160, 24 h, read-out: DIZ.
Consider `CC1(C)O[C@H]2O[C@@H]3COB(c4cccc(C=O)c4)O[C@@H]3[C@H]2O1`, for which the zone of inhibition at 100 µg/disc worked out at 15 mm.
The same measure, in the same setting: for `CC1(C)O[C@H]2O[C@@H]3COB(c4cccc(/N=C/c5cc(Br)ccc5O)c4)O[C@@H]3[C@H]2O1` the value was 13 mm.
